Patent EP0423524A2, “Propiophenone derivatives and their preparation and pharmaceutical use” (MARUHO Co., Ltd., priority 1989, dated 1991)
Where a name gives a salt, the structure may show the parent alone.

Assays:
Type in all cases: in vivo
Male Slc-ddy mice [1] = assay: Inhibitory effect on the motor coordination (rotating rod test); conditions: oral, rotating rod 30 min after administration, falling off within 60 s counted as positive, 95% confidence limit in brackets
Procedure: Male Slc-ddy mice of 20 - 25 g (5 weeks old) were used in groups of 7 - 10. The test compounds were used dissolved or suspended in 0.5 % CMC or 0.5 % Tween 80 solution. Each test compound (300 - 600 mg/10 ml/kg) was orally administered to the mice, and after 30 min the mice were put on a 3-cm diameter rod rotating at a speed of 10 min⁻¹ in a direction opposite to the rotation direction, and the time of staying on it was measured to a maximum of 180 s. Those falling off of the rotating rod within 60 s were judged as having an inhibitory effect on the motor coordination and, with the number of cases as index, comparison was made with the reference compound (eperisone hydrochloride).
The mice were trained in advance to be able to stay on the rotating rod for more than 300 s, and those capable of staying on it for more than 250 s immediately before testing were used.

Male Slc-ddy mice [2] = assay: Anti-nicotinic effect (survival after intravenous nicotine bitartrate); conditions: Mus musculus, 0.5 h, oral, nicotine bitartrate 3 mg/10 ml/kg i.v. after 30 min, Litchfield-Wilcoxon, 95 % confidence limit in brackets, read-out: ED₅₀ values for the anti-nicotinic effect
Procedure: Experimental Method of Male Slc-ddy mice/30 - 35 g (6 weeks old) were used as test animals in groups of 7 - 10. The test compounds (100 mg/10 ml/kg) were orally administered to the mice, and after 30 min, nicotine bitartrate (3 mg/10 ml/kg) was administered intravenously, and the number of animals killed due to tonic convulsion was counted. The surviving animals were judged as having an anti-nicotinic effect, and with the number thereof as index the comparison concerning the anti-nicotinic effect was made with the reference compound (eperisone hydrochloride).

Male Slc-ddy mice [3] = assay: Anti-strychnine effect (time from tonic convulsions to death after subcutaneous strychnine nitrate); conditions: mice, oral, strychnine nitrate 1.5 mg/10 ml/kg s.c. after 30 min; Litchfield-Wilcoxon; 95% confidence limit in brackets
Procedure: Strychnine is known to enhance reflex stimulation, among others, of spinal cord to induce convulsions. If this effect of strychnine can be suppressed by administration of any of the above-mentioned compounds, this compound is expected to have a central muscle relaxation effect.
Male Slc-ddy mice of 25 - 30 g (5 weeks old) were used in groups of 7 - 10.
The test compounds (100 mg/10 ml/kg) were orally administered to the mice, and after 30 min, 1.5 mg/10 ml/kg of strychnine nitrate was administered subcutaneously, and the time was measured from the occurence of tonic convulsions to the death of the animals. Cases in which this time was extended to 6 min or more were judged as corresponding to an anti-strychnine effect, and with the number of such cases as index, comparison was made with the reference compound (eperisone hydrochloride). […] The ED₅₀ values (95% confidence limit) for the anti-strychnine effect were determined by the Litchfield-Wilcoxon method and are shown in Table 3.

Acute toxicity test = conditions: mouse, in vivo, po, mice, observation for 7 days, Litchfield-Wilcoxon, 95% confidence limit in brackets, read-out: LD₅₀ values (50% of lethal dose)
Procedure: (§1) Male ddy mice of 20-30 g were used as test animals in groups of 5-10. The test compounds were dissolved or suspended in 0.5 % Tween 80 aqueous solution, and orally administered to the mice. Observation was made for 7 days after administration. The LD₅₀ values (50% of lethal dose) (95% confidence limit) were determined by the Litchfield-Wilconxon method, and are shown in Table 4.

Male ddy mice = assay: Acute toxicity test; conditions: oral
Procedure: as §1

| Structure (SMILES) | ED₅₀ values for the inhibitory effect on the motor coordination (Male Slc-ddy mice [1]) | ED50 (Male Slc-ddy mice [2]) [mg/kg] | ED₅₀ values for the anti-strychnine effect (Male Slc-ddy mice [3]) | LD50 at 168 h (Acute toxicity test) [mg/kg] | minimum lethal dose relative to the minimum amount necessary for developing a pharmacological effect (safety margin) (Male ddy mice) | LD₅₀ values (50% of lethal dose) (Male ddy mice; observation for 7 days, Litchfield-Wilcoxon, 95% confidence limit in brackets, 10080 min) |
| --- | --- | --- | --- | --- | --- | --- |
| CCc1ccc(C(=O)C(C)CN2CCCCC2)cc1 (stereo not drawn) [Eperisone hydrochloride, reference compound] | positive cases not in excess of 50% | 140 | No effect detected | 303 | the minimum lethal dose is close to the minimum amount necessary for developing a pharmacological effect | – |
| CCc1ccc(C(=O)C(C)Cn2ccnc2)cc1 (stereo not drawn) [Hydrochloride of compound 2] | – | – | – | – | – | 225 mg/kg (182-278) |
